Test results as given in patent US20070134261A1, “Effectors of innate immunity” (priority 2001, published 2007).
Values after ≈ are worked out from the molar mass of the structure shown. Read-outs that look alike come from different tables or passages of the source. Residues, ends and D or L forms follow the SMILES beside them.

How the values were obtained:
[1] = tested on: RAW 264.7 mouse macrophage cells; format: cell-based; conditions: Peptide 20 μg/ml; 100 ng/ml E. coli 0111:B4 LPS, 6 h
CD-1 mice = experiment: Lethal endotoxemia in galactosamine-sensitized CD-1 mice; format: in vivo; conditions: 2 μg LPS; peptide 200 μg/mouse = 8 mg/kg IP 15 min after LPS; 48 hours; control 0
BALB/c mice = experiment: Lethal endotoxemia in galactosamine-sensitized BALB/c mice; format: in vivo; conditions: 2 μg LPS; peptide 200 μg/mouse = 8 mg/kg IP 15 min after LPS; 48 hours; no peptide 10
[2] = tested on: human bronchial epithelial cells (HBE); experiment: LDH release assay (Cytotoxicity Detection Kit); format: cell-based; conditions: 100 μg/ml, 24 hours; no peptide control 1.0 ± 0.05
Method in brief: (§1)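 Both read-outs were colorimetric at OD490 on HBE cells after 24 h with 100 μg of each peptide. The WST-1 assay reported viability through mitochondrial dehydrogenase cleavage of the tetrazolium salt. The LDH assay tested the removed supernatant for enzyme leaked from membrane-damaged cells.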

HBE cells = experiment: WST-1 assay (cell viability); format: cell-based, human
Method in brief: as §1

[3] = tested on: A549 human epithelial cells; experiment: Induction of chemokines (IL-8, MCP-1) in A549 cells (ELISA); format: cell-based; conditions: peptide 10 ug/ml, 24 hr
Experimental: (§2) The murine macrophage cell line RAW 264.7, THP-1 cells (human monocytes), a human epithelial cell line (A549), human bronchial epithelial cells (16HBEo14), and whole human blood were used. HBE cells were grown in MEM with Earle's. THP-1 cells were grown and maintained in RPMI 1640 medium. The RAW and A549 cell lines were maintained in DMEM supplemented with 10% fetal calf serum. […] DMEM was aspirated from cells grown overnight and replaced with fresh medium. After incubation of the cells with peptide, the release of chemokines into the culture supernatant was determined by ELISA (R&D Systems, Minneapolis, Minn.).

Salmonella = Salmonella infection in BALB/c mice (viable bacteria in spleen); format: in vivo, mouse; conditions: Table 49; peptide 200 μg IP, 24 h; Control 2.70 ± […] 10^5
Experimental: (§3) BALB/c mice were given 1×10^5 Salmonella and cationic peptide (200 μg) by intraperitoneal injection. The mice were monitored for 24 hours at which point they were euthanized, the spleen removed, homogenized and resuspended in PBS and plated on Luria Broth agar plates with Kanamycin (50 μg/ml). The plates were incubated overnight at 37° C. and counted for viable bacteria (Table 49 and 50). CD-1 mice were given 1×10^8 S. aureus in 5% porcine mucin and cationic peptide (200 μg) by intraperitoneal injection (Table 51). The mice were monitored for 3 days at which point they were euthanized, blood removed and plated for viable counts. CD-1 male mice were given 5.8×10^6 CFU EHEC bacteria and cationic peptide (200 μg) by intraperitoneal (IP) injection and monitored for 3 days (Table 52). […] Many of the cationic peptides were shown not to be directly antimicrobial as tested by the Minimum Inhibitory Concentration (MIC) assay (Table 54).

S. aureus = experiment: Murine S. aureus infection model (CD-1 mice); format: in vivo, mouse; conditions: peptide 200 μg IP; for CFU/ml (blood): 3 days, No Peptide 7.61 ± 1.7 × 10^3; for # Mice Survived (3 days)/Total mice in group: No Peptide 6/8
Experimental: as §3

[4] = format: cell-based
[5] = tested on: A549 human epithelial cells; experiment: LPS induced IL-8 production in A549 cells (ELISA); format: cell-based; conditions: 100 ng/ml E. coli O111:B4 LPS, 24 hours
[6] = tested on: THP-1 cells (human monocytes); experiment: Induction of IL-8 in undifferentiated THP-1 cells; format: cell-based
Experimental: as §2

SMILES | Inhibition of TNF-α [1] | Survival (CD-1 mice) | Survival (BALB/c mice) | LDH Release (OD490 nm) [2] | IL-8 [3] | Viable Bacteria in the Spleen (Salmonella) | CFU/ml (blood) (S. aureus) | # Mice Survived (3 days)/Total mice in group (S. aureus) | MIC, C. rhod. ([4]; 24 h) | MIC, E. coli ([4]; 24 h) | MIC, EHEC ([4]; 24 h) | MIC, P. aerug. ([4]; 24 h) | MIC, S. aureus ([4]; 24 h) | MIC, S. typhim. ([4]; 24 h) | further results
CSCC[C@H](NC(=O)[C@H](CO)NC(=O)[C@@H](NC(=O)[C@H](CCCCN)NC(=O)[C@H](Cc1ccccc1)NC(=O)[C@H](CS)NC(=O)[C@H](CO)NC(=O)[C@H](CCCNC(=N)N)NC(=O)[C@@H](N)CCCCN)C(C)C)C(=O)N[C@@H](CCCNC(=N)N)C(=O)NCC(=O)N[C@H](C(=O)N[C@@H](CO)C(=O)N[C@@H](CCCNC(=N)N)C(=O)N[C@@H](CCCNC(=N)N)C(=O)N[C@@H](CCCNC(=N)N)C(=O)N[C@@H](CS)C(=O)N[C@@H](CCCCN)C(=O)O)C(C)C [SEQ ID NO: 27] (H-KRSCFKVSMRGVSRRRCK-OH; N-terminus and C-terminus assumed) | 51.1 ± 2.8% | 20% | 50% | 0.91 ± 0.04 OD490 nm | 0.346 ng/mL | 1.01 ± 0.26 × 10^5 CFU/ml | 2.25 ± 0.1 × 10^2 CFU/ml | 3/4 | 2 µg/mL (≈ 0.915 µM) | 8 µg/mL (≈ 3.66 µM) | 4 µg/mL (≈ 1.83 µM) | 64 µg/mL (≈ 29.3 µM) | 64 µg/mL (≈ 29.3 µM) | 16 µg/mL (≈ 7.32 µM) | OD490 nm (WST-1 cell viability) (HBE cells; 100 μg/ml, 24 hours, no peptide control 1.63 ± 0.16): 1.63 ± 0.03 OD490 nm
CC[C@H](C)[C@H](NC(=O)[C@@H]1CCCN1C(=O)[C@H](CS)NC(=O)[C@H](CCCNC(=N)N)NC(=O)[C@@H](N)CC(C)C)C(=O)N[C@@H](C)C(=O)N1CCC[C@H]1C(=O)N[C@H](C(=O)N[C@H](C(=O)N1CCC[C@H]1C(=O)N[C@H](C(=O)N[C@@H](CS)C(=O)N[C@@H](CCCCN)C(=O)N[C@@H](CCCCN)C(=O)O)C(C)C)[C@@H](C)CC)C(C)C [SEQ ID NO: 6] (H-LRCPIAPVIPVCKK-OH; N-terminus and C-terminus assumed) | 59.8 ± 1.2% | 40% | 17% | 0.97 ± 0.02 OD490 nm | 0.181 ng/mL | 2.57 ± 0.72 × 10^4 CFU/ml | 1.98 ± 0.05 × 10^2 CFU/ml | 3/4 | 64 µg/mL (≈ 41.6 µM) | 128 µg/mL (≈ 83.3 µM) | 64 µg/mL (≈ 41.6 µM) |  |  | 128 µg/mL (≈ 83.3 µM) | OD490 nm (WST-1 cell viability) (HBE cells): 1.81 ± 0.05 OD490 nm; MIC, S. aureus ([4]; Staphylococcus aureus, overnight, 96-well plate): >
CC[C@H](C)[C@H](N)C(=O)N[C@@H](CC(C)C)C(=O)N1CCC[C@H]1C(=O)N[C@@H](Cc1c[nH]c2ccccc12)C(=O)N[C@@H](CCCCN)C(=O)N[C@@H](Cc1c[nH]c2ccccc12)C(=O)N1CCC[C@H]1C(=O)N[C@@H](Cc1c[nH]c2ccccc12)C(=O)N[C@@H](Cc1c[nH]c2ccccc12)C(=O)N1CCC[C@H]1C(=O)N[C@@H](Cc1c[nH]c2ccccc12)C(=O)N[C@@H](CCCNC(=N)N)C(=O)N[C@@H](CCCNC(=N)N)C(N)=O [SEQ ID NO: 2] |  |  |  |  |  |  |  |  | 64 µg/mL (≈ 33.6 µM) | 4 µg/mL (≈ 2.1 µM) |  | 32 µg/mL (≈ 16.8 µM) | 16 µg/mL (≈ 8.39 µM) | 16 µg/mL (≈ 8.39 µM) | Inhibition of IL-8 ([5]; SEQ ID NO: 2 0.1 μg/ml): 6.8 ± 9.6%; Inhibition of IL-8 ([5]; SEQ ID NO: 2 1 μg/ml): 12.8 ± 24.5%; Inhibition of IL-8 ([5]; SEQ ID NO: 2 10 μg/ml): 29.0 ± 26.0%; Inhibition of IL-8 ([5]; SEQ ID NO: 2 50 μg/ml): 39.8 ± 1.6%; Inhibition of IL-8 ([5]; SEQ ID NO: 2 100 μg/ml): 45.0 ± 3.5%; induction of IL-8 [6]: significantly induced IL-8
